Test results taken from patent US20140378551A1, “Composition for the Prophylactic Treatment of Neuropathic Pain” (Universite d'Auvergne, priority 2011, published 2014).

Tested on: neuropathic pain induced by spinal nerve ligation among rats
Assay: Von Frey test: mechanical allodynia, spinal nerve ligation model
Assay type: in vivo
Conditions: 20 mg/kg/rat/day i.p.
Experimental: The effects of the prolonged and preventive administration of memantine were first of all studied among rats. The model used was that of the ligation of the spinal nerve L5 (herein after called SNL for spinal nerve ligation) among rats. The emergence of neuropathic pain is assessed according to the following criteria: • the behavior of the rat following the spinal nerve ligation (SNL), • cognition, and • molecular events, including the expression of phosphorylated tyrosine 1472 of the NR2B sub-unit of the NMDA receptor at the spinal level.
The study was based on the comparison of the two main groups of animals. The first group was a control group. The rats of the control group, designated as “Sham” in the graphs, underwent no operation. They are used to assess the role of the injected substances on the individual, without there being any emergence of neuropathic pain.
Two sub-groups were set up in this group: • one sub-group treated with the vehicle which is a saline solution of NaCl 0.9% by mass, in a dose of 1 mL/kg/rat/day, by intraperitoneal injection; and • one sub-group treated with memantine in a dose of 20 mg/kg/rat/day, by intraperitoneal injection.
The second group of animals comprises rats having to undergo to spinal nerve ligation and therefore likely to develop neuropathic pain. This group is referred to in the graphs by the term SNL. As in the control group, this group is divided into two sub-groups: • one sub-group treated with the vehicle, which is a saline solution of NaCl 0.9% by mass, in a dose of 1 mL/kg/rat/day, by intraperitoneal injection; and • one sub-group treated by memantine in a dose of 20 mg/kg/rat/day, by intraperitoneal injection. […]
7. Seven to 14 days after the surgery, the neuropathic, hyperalgesic or allodynic rats are selected according to their response to nociceptive and non-nociceptive stimulation assessed through appropriate tests (see paragraph 6.1.2). […]

CC12CC3CC(C)(C1)CC(N)(C3)C2 [memantine, 1-amino-3,5-dimethyl-adamantane]
threshold of response (mechanical allodynia) (SNL rats, 4 days preceding and 3 days following the operation): restores a threshold of response almost identical to that of non-operated rats | threshold of response (mechanical allodynia) (SNL rats, solely post-operative injection): not enough to restore the normal behavior of the rats | threshold of response (mechanical allodynia) (non-operated (Sham) rats, versus vehicle): no influence whatsoever on the behavior of non-operated rats
